Earlier results as cited in patent US6830897B2, “High throughput screen for reducing drug candidate attrition” (Pfizer Inc., priority 2000, dated 2004).

Details: toxicities linked to formation of reactive metabolites; literature reference in brackets
For `NC(=O)N1c2ccccc2C=Cc2ccccc21` [Carbamazepine], the “Toxicity (Ref.)” value is listed as “Hyper- sensitivity (13)”.
For `COc1ccc2c(c1)c(CC(=O)O)c(C)n2C(=O)c1ccc(Cl)cc1` [Indomethacin], the “Toxicity (Ref.)” value is listed as “Neutrophil toxicity (14)”.
For `O=C1NC(=O)C(c2ccccc2)(c2ccccc2)N1` [Phenytoin], the “Toxicity (Ref.)” value is given as “Hepato- toxicity (18)”.
For `COc1ccc(O)cc1` [4-hydroxyanisole], the “Toxicity (Ref.)” value is given as “Hepato- toxicity (15)”.
In the case of `Cc1cccc(O)c1` [m-Cresol], the “Toxicity (Ref.)” value is listed as “Circulatory collapse, death (16)”.
In the case of `CC(C)c1ccc(O)cc1` [4-isopropylphenol], the “Toxicity (Ref.)” value is listed as “Circulatory collapse, death (16)”.
For `CN1CCN(C2=Nc3cc(Cl)ccc3Nc3ccccc32)CC1` [Clozapine], the “Toxicity (Ref.)” value is listed as “Neutrophil Cyto-toxicity (12)”.
In the case of `CCCC(CCC)C(=O)O` [Valproic acid], the “Toxicity (Ref.)” value is given as “Hepato- toxicity (17)”.
For `CC(=O)Nc1ccc(O)cc1` [Acetaminophen], the “Toxicity (Ref.)” value is given as “Hepato- toxicity (11)”.
